Consider 51 compounds from PubChem BioAssay AID1996.

Each structure is given as a SMILES string. In brackets after ≈: the same amount, converted by molar mass.

The conditions of the series: buffer; pH 7.4; 200.0 µM.
For `COc1ccccc1NC(=O)CC(c1ccc(F)cc1)c1ccco1` (stereo unspecified), the solubility (kinetic) is 21.2 µg/mL (≈ 62.5 µM). Then `COc1ccc(Cl)cc1C(=O)NCc1ccco1`, with 31.8 µg/mL (≈ 120 µM); and `Cn1c(SCC(=O)Nc2cccnc2Cl)nnc1-c1ccco1`, with greater than 52.5 µg/mL. The figure for `O=C(COC(=O)/C=C/c1ccc(OC(F)F)cc1)NC(=O)NC1CCCCC1` is 4.5 µg/mL (≈ 11.4 µM); for `CCc1sc(C(=O)N2CCN(c3ccc(F)cc3)CC2)cc1C` it is 10.7 µg/mL (≈ 32.2 µM); for `COCCn1c(/C=C/c2ccccc2)nc2ccccc21` it is greater than 41.8 µg/mL. The figure for `CC1=CC(C)C(C(=O)O)C(C(=O)N2CCN(C)CC2)C1` (stereo unspecified) is greater than 42.1 µg/mL; for `O=C(CCSCc1ccc(Cl)cc1)NCc1ccco1` it is 39.5 µg/mL (≈ 127 µM); for `CN1CCN(C(=O)c2cc(=O)c3cc(Cl)ccc3o2)CC1` it is greater than 46 µg/mL.

As to `Cc1cc(N2CCOCC2)nc2ccc(NC(=S)NC(C)C)cc12`, the kinetic solubility was 4.6 µg/mL (≈ 13.4 µM). Then `O=C(O)Cc1ccc(NS(=O)(=O)c2ccc3ccccc3c2)cc1`, with greater than 51.2 µg/mL. `Fc1cc(F)nc(NCc2ccccc2)n1` gave a kinetic solubility of 12.2 µg/mL (≈ 55.2 µM). Then `C=CCNC(=S)N1CCN(S(=O)(=O)c2ccc(C)cc2)CC1`, with greater than 50.9 µg/mL; and `CC(NC(=O)c1cc2ccccc2oc1=O)c1ccccc1` (stereo unspecified), with 3.8 µg/mL (≈ 13 µM); and `COc1ccc(CNc2ccc(N3CCOCC3)cc2)cc1`, with 40.9 µg/mL (≈ 137 µM). Then `Cc1[nH]c(=O)[nH]c(=O)c1S(=O)(=O)Nc1ccc(F)c(Cl)c1`, with greater than 50.1 µg/mL; and `CCc1cc(C(=O)NCC2CCCO2)sc1C` (stereo unspecified), with greater than 38 µg/mL; and `c1ccc(-c2cc(-c3ccccc3)ncn2)cc1`, with 4.6 µg/mL (≈ 19.8 µM). Then `Cn1cc(C(=O)C(=O)N2CCc3ccccc32)c2ccccc21`, with 0.8 µg/mL (≈ 2.63 µM). For the compound `COC(=O)c1cc(N2CCNCC2)nc2ccccc12.Cl`, the solubility (kinetic) was determined as 39.9 µg/mL.

For the compound `CCOc1ccccc1NC(=O)Nc1ccc(CC#N)cc1`, the kinetic solubility stood at 37.8 µg/mL (≈ 128 µM). Then `CCCCn1nc(C(=O)N(C)CC(=O)Nc2ccc(F)c(F)c2F)ccc1=O`, with greater than 59.5 µg/mL; and `Cc1cc(N2CCN(C(=O)Nc3ccc(F)cc3F)CC2)c2ccccc2n1`, with greater than 57.4 µg/mL. Then `Cc1cc(C)c2c3c(sc2n1)C(=O)N(c1ccccc1C)CC(=O)N3`, with 25.5 µg/mL (≈ 72.6 µM); and `CCOc1ccc(-c2c(=O)n(O)c3ccccc3[n+]2[O-])cc1`, with greater than 44.7 µg/mL. Then `O=C(O)c1cccc2c1C(=O)N(c1ccccc1)C2`, with greater than 38 µg/mL; and `O=C1NC(=O)C(c2ccc(Cl)cc2)N1` (stereo unspecified), with greater than 31.6 µg/mL; and `Cc1cc(O)cc(=O)n1CCc1ccccc1`, with greater than 34.4 µg/mL.

Compound `O=C(CNC(=O)c1ccc(C(F)(F)F)cc1)NC1CC1` yielded a kinetic solubility greater than 42.9 µg/mL.

In the case of `Cc1ccc(NC(=O)c2ccccn2)c(Br)c1`, the kinetic solubility was less than 0.3 µg/mL. Regarding `Cl.O=C(CCN1CCc2ccccc2C1)Nc1ccc(F)c(F)c1`, the kinetic solubility turned out to be 37.9 µg/mL. Then `Cc1ccc(S(=O)(=O)N2CCC[C@H]2C(=O)OCC(=O)N2CCc3ccccc32)cc1`, with 10.8 µg/mL (≈ 25.2 µM); and `CS(=O)(=O)N(CC(=O)Nc1c(F)cccc1F)Cc1ccccc1`, with greater than 53.2 µg/mL; and `Cc1ccc(C(=O)N2CCN(C(=O)C3CCCO3)CC2)cc1` (stereo unspecified), with greater than 45.4 µg/mL. In turn, `CCCS(=O)(=O)N1CCCC(C(=O)Oc2ccc(OC)cc2)C1` (stereo unspecified) returned a kinetic solubility of 40.5 µg/mL (≈ 119 µM).

Regarding `CC(=O)N1CCc2cc(S(=O)(=O)Nc3ccc(C)cc3)ccc21`, the solubility (kinetic) was 3.6 µg/mL (≈ 10.9 µM). The figure for `COc1cccc(-c2nc(NC3CCCC3)c3ccccc3n2)c1O` is less than 0.2 µg/mL. The figure for `COc1ccc(Cl)cc1NC(=S)NCCN1CCOCC1` is greater than 49.5 µg/mL; for `Cc1nnc(SCC(=O)NC2CC2)n1-c1ccccc1` it is greater than 43.3 µg/mL. `COc1ccc(N(C)S(=O)(=O)c2cccc(C(=O)OCC(=O)c3c(N)n(C)c(=O)n(C)c3=O)c2)cc1` had a kinetic solubility of 3.2 µg/mL (≈ 6.2 µM). `O=C(O)C1C2C=CC(C2)C1C(=O)NCc1ccco1` (stereo unspecified) returned a solubility (kinetic) of 36.2 µg/mL (≈ 139 µM).

`COCCn1c(=O)[nH]c2cc(C(=O)Nc3cccc(F)c3)ccc2c1=O` registered a kinetic solubility of 6.2 µg/mL (≈ 17.4 µM). The figure for `CCCN(CC(=O)Nc1ccccc1C)C(=O)CCl` is greater than 42.4 µg/mL; for `Cc1cc(C)c2c(CN3CCC(C)CC3)cc(=O)oc2c1` it is 4.3 µg/mL (≈ 15.1 µM).

Consider `CC1CCc2ccccc2N1C(N)=Nc1ccccc1.Cl` (stereo unspecified), for which the kinetic solubility was greater than 45.3 µg/mL.

Compound `Cn1c(N)c(C(=O)COC(=O)Cc2c(F)cccc2Cl)c(=O)n(C)c1=O` returned a solubility (kinetic) of 31.9 µg/mL (≈ 83.1 µM). The figure for `O=C1CCCN1CCCNc1ncccc1[N+](=O)[O-]` is greater than 39.6 µg/mL; for `CN(C)/C=N/c1ncc(C(=O)c2ccc(-c3ccccc3)cc2)s1` it is 1.1 µg/mL (≈ 3.28 µM); for `CCOc1cccc(NC(=O)/C(C#N)=C\c2cccnc2)c1` it is 30.4 µg/mL (≈ 104 µM). Then `CCOc1ccc(N2CC(C(=O)NC3CCSC3=O)CC2=O)cc1` (stereo unspecified), with 42.6 µg/mL (≈ 122 µM). Compound `O=c1c2ccccc2[nH]c2ccc(O)cc12` returned a solubility (kinetic) greater than 31.7 µg/mL.
